According to US10130830B2, “Preservative systems comprising cationic surfactants” (Laboratorios Miret, S.A., priority 2005, dated 2018):

What was measured:
aerobic total count = experiment: Preservative action in cooked chicken breast, aerobic total count; format: cell-based; conditions: for counts (aerobic total count): LAE 0.2 g/kg, for 5 weeks
Method: (2) Determination of Preservative Action in Chicken Breast. Process of Preparation • 1. Fresh chicken breast was diced to pieces • 2. Brine (8.70% sodium chloride and 4.35% tripolyphosphate in water) was added to the fresh chicken in an amount of 11.5 g brine per 88.5 g meat in the control preparation and 11.5 g brine and 88.4 g meat in the preparations treated with preservative. • 3. Brine and meat were mixed during 15 minutes, in the preparations treated with preservative the preservative was added after 14 minutes in an amount of 0.2 g/kg. • 4. Vacuum refrigerate tumbling was made during 30 minutes. • 5. Samples were vacuum-packed in sterile bags and they were cooked at 85° C. for 30 minutes. • 6. The cooked chicken was refrigerated at 4° C. • 7. The cooked chicken was diced in irregular shapes. • 8. Then, the nuggets were stored at 10° C. in sterile vacuum-packed bags. Analysis […] Dilutions were made in buffered peptone water. Tryptone Soya Agar was harvested with each dilution and incubated at 35° C. for 48 hours. The mean value in log cfu/g of three samples per treatment and day of analysis was calculated.

[1] = system: inoculated microorganisms; experiment: Preservative action in cosmetic products, overall outcome against the inoculum mixture; format: cell-based; conditions: Example 17, oil in water emulsion with an ionic emulsifier, 0.20 g of LAE/kg
Excerpt: (1) Determination of Preservative Action in Cosmetic Products. […] This assay consists of the contamination of the protecting formulations with an inoculum mixture of 10^8 cfu/ml concentration, for each of the micro-organisms, and the determination of the number of viable cells in time. This inoculum mixture is composed of the following microorganisms: [table] The cosmetic composition to be analysed is divided into sterile containers with 50 g of product for each flask. Each container is inoculated with 0.5 ml of inoculum (10^8 cfu/ml). The target concentration is 10^6 cfu/ml, approximately. All the containers are kept at a temperature between 20-25° C. and are protected from light. The level of the microbial contamination is checked at 0 hours, 7 days, 14 days and 28 days. The number of colonies is evaluated by dilution in buffer peptone with the appropriate neutraliser agent of the preservative. The culture media used for counting the microorganisms are: […] (2) Determination of Preservative Action in Chicken Breast. Process of Preparation • 1. Fresh chicken breast was diced to pieces • 2. Brine (8.70% sodium chloride and 4.35% tripolyphosphate in water) was added to the fresh chicken in an amount of 11.5 g brine per 88.5 g meat in the control preparation and 11.5 g brine and 88.4 g meat in the preparations treated with preservative. • 3. […]

Aerobes = experiment: Preservative action in cosmetic products (Antimicrobial Effectiveness Testing USP 24th Edition), aerobes; format: cell-based
Excerpt: (§1) (1) Determination of Preservative Action in Cosmetic Products. […] This assay consists of the contamination of the protecting formulations with an inoculum mixture of 10^8 cfu/ml concentration, for each of the micro-organisms, and the determination of the number of viable cells in time. This inoculum mixture is composed of the following microorganisms: [table] The cosmetic composition to be analysed is divided into sterile containers with 50 g of product for each flask. Each container is inoculated with 0.5 ml of inoculum (10^8 cfu/ml). The target concentration is 10^6 cfu/ml, approximately. All the containers are kept at a temperature between 20-25° C. and are protected from light. The level of the microbial contamination is checked at 0 hours, 7 days, 14 days and 28 days. The number of colonies is evaluated by dilution in buffer peptone with the appropriate neutraliser agent of the preservative. The culture media used for counting the microorganisms are: […] (2) Determination of Preservative Action in Chicken Breast. Process of Preparation • 1. Fresh chicken breast was diced to pieces • 2. Brine (8.70% sodium chloride and 4.35% tripolyphosphate in water) was added to the fresh chicken in an amount of 11.5 g brine per 88.5 g meat in the control preparation and 11.5 g brine and 88.4 g meat in the preparations treated with preservative. • 3. Brine and meat were mixed during 15 minutes, in the preparations treated with preservative the preservative was added after 14 minutes in an amount of 0.2 g/kg. • 4. Vacuum refrigerate tumbling was made during 30 minutes. • 5. Samples were vacuum-packed in sterile bags and they were cooked at 85° C. for 30 minutes. • 6. The cooked chicken was refrigerated at 4° C. • 7. The cooked chicken was diced in irregular shapes. • 8. Then, the nuggets were stored at 10° C. in sterile vacuum-packed bags. Analysis

Moulds = experiment: Preservative action in cosmetic products (Antimicrobial Effectiveness Testing USP 24th Edition), moulds; format: cell-based, Aspergillus niger
Excerpt: as §1

[2] = Example 10, oil in water emulsion with non-ionic surfactant, 0.2 g/kg, 0 days
[3] = Example 10, oil in water emulsion with non-ionic surfactant, 0.2 g/kg, 7 days
[4] = Example 10, oil in water emulsion with non-ionic surfactant, 0.2 g/kg, 14 days
[5] = Example 12, bath gel, LAE 0.2 g/kg, 0 days
[6] = Example 12, bath gel, LAE 0.2 g/kg, 7 days
[7] = Example 12, bath gel, LAE 0.2 g/kg, 14 days
[8] = Example 15, bath gel, LAE 0.2 g/kg, 0 days
[9] = Example 15, bath gel, LAE 0.2 g/kg, 7 days
[10] = Example 15, bath gel, LAE 0.2 g/kg, 14 days
[11] = Example 17, oil in water emulsion with an ionic emulsifier, 0.20 g of LAE/kg, 0 days
[12] = Example 17, oil in water emulsion with an ionic emulsifier, 0.20 g of LAE/kg, 7 days
[13] = Example 17, oil in water emulsion with an ionic emulsifier, 0.20 g of LAE/kg, 14 days
[14] = Example 19, bath gel, 0.2 g of LAE/kg, 0 days
[15] = Example 19, bath gel, 0.2 g of LAE/kg, 7 days
[16] = Example 19, bath gel, 0.2 g of LAE/kg, 14 days

CCCCCCCCCCCC(=O)N[C@@H](CCCN=C(N)N)C(=O)OCC.Cl [LAE, ethyl ester of the lauramide of the arginine monohydrochloride]
aerobic total count, mean (aerobic total count; Example 16, cooked chicken, 0.20 g of LAE/kg, day 35, mean of triplicate): 3.6 log cfu/g
aerobic total count, mean (aerobic total count; Example 16, cooked chicken, 0.20 g of LAE/kg, day 42, mean of triplicate): 4.3 log cfu/g
aerobic total count, mean (aerobic total count; Example 16, cooked chicken, 0.20 g of LAE/kg, day 49, mean of triplicate): 4.9 log cfu/g
aerobic total count, mean (aerobic total count; Example 16, cooked chicken, 0.20 g of LAE/kg, day 56 (8 weeks), mean of triplicate): 5.5 log cfu/g
counts (aerobic total count) (aerobic total count; Example 16, cooked chicken): below 4.0 log cfu/g
aerobic total count, mean (aerobic total count; Example 18, cooked chicken, 0.2 g of LAE/kg, day 0, mean of triplicate): 2.0 log cfu/g
aerobic total count, mean (aerobic total count; Example 18, cooked chicken, 0.2 g of LAE/kg, day 7, mean of triplicate): 2.0 log cfu/g
aerobic total count, mean (aerobic total count; Example 18, cooked chicken, 0.2 g of LAE/kg, day 14, mean of triplicate): 2.4 log cfu/g
aerobic total count, mean (aerobic total count; Example 18, cooked chicken, 0.2 g of LAE/kg, day 21, mean of triplicate): 2.9 log cfu/g
aerobic total count, mean (aerobic total count; Example 18, cooked chicken, 0.2 g of LAE/kg, day 28, mean of triplicate): 3.4 log cfu/g
aerobic total count, mean (aerobic total count; Example 18, cooked chicken, 0.2 g of LAE/kg, day 35, mean of triplicate): 3.7 log cfu/g
aerobic total count, mean (aerobic total count; Example 18, cooked chicken, 0.2 g of LAE/kg, day 42, mean of triplicate): 4.1 log cfu/g
aerobic total count, mean (aerobic total count; Example 18, cooked chicken, 0.2 g of LAE/kg, day 49, mean of triplicate): 5.2 log cfu/g
aerobic total count, mean (aerobic total count; Example 18, cooked chicken, 0.2 g of LAE/kg, day 56 (8 weeks), mean of triplicate): 5.7 log cfu/g
counts (aerobic total count) (aerobic total count; Example 18, cooked chicken): below 4.0 log cfu/g
preservation outcome [1]: effectively preserved
Aerobes count (Aerobes; [2]): 6.2 log cfu/g
Aerobes count (Aerobes; [3]): 3.5 log cfu/g
Aerobes count (Aerobes; [4]): 3.0 log cfu/g
Aerobes count (Aerobes; [5]): 6.2 log cfu/g
Aerobes count (Aerobes; [6]): 4.2 log cfu/g
Aerobes count (Aerobes; [7]): 3.0 log cfu/g
Aerobes count (Aerobes; [8]): 6.1 log cfu/g
Aerobes count (Aerobes; [9]): 3.0 log cfu/g
Aerobes count (Aerobes; [10]): 2.6 log cfu/g
Aerobes count (Aerobes; [11]): 6.1 log cfu/g
Aerobes count (Aerobes; [12]): 4.0 log cfu/g
Aerobes count (Aerobes; [13]): 2.9 log cfu/g
Aerobes count (Aerobes; [14]): 6.0 log cfu/g
Aerobes count (Aerobes; [15]): 3.3 log cfu/g
Aerobes count (Aerobes; [16]): 2.9 log cfu/g
Moulds count (Moulds; [2]): 4.3 log cfu/g
Moulds count (Moulds; [3]): <2.0 log cfu/g
Moulds count (Moulds; [4]): <2.0 log cfu/g
Moulds count (Moulds; [5]): 4.5 log cfu/g
Moulds count (Moulds; [6]): 2.3 log cfu/g
Moulds count (Moulds; [7]): <2.0 log cfu/g
Moulds count (Moulds; [8]): 4.1 log cfu/g
Moulds count (Moulds; [9]): <2.0 log cfu/g
Moulds count (Moulds; [10]): <2.0 log cfu/g
Moulds count (Moulds; [11]): 4.1 log cfu/g
Moulds count (Moulds; [12]): 2.9 log cfu/g
Moulds count (Moulds; [13]): <2.0 log cfu/g
Moulds count (Moulds; [14]): 4.1 log cfu/g
Moulds count (Moulds; [15]): 2.0 log cfu/g
Moulds count (Moulds; [16]): <2.0 log cfu/g
